PubChem BioAssay (NCI)
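48-hour exposure; five concentrations; linearly interpolated endpoints. Abbreviation: GI50, concentration required for 50% inhibition of growth. TGI: concentration producing complete growth inhibition.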

Columns and labels:
Experiment in all cases: inhibition of tumour cell growth, NCI panel, 48 h
786-0 renal = system: 786-0 renal
A498 renal = system: A498 renal
A549 NSCLC = system: A549 NSCLC
ACHN renal = system: ACHN renal
BT-549 breast = system: BT-549 breast
CAKI-1 renal = system: CAKI-1 renal
CCRF-CEM leukemia = system: CCRF-CEM leukemia
COLO 205 colon = system: COLO 205 colon
DU-145 prostate = system: DU-145 prostate
EKVX NSCLC = system: EKVX NSCLC
HCC-2998 colon = system: HCC-2998 colon
HCT-116 colon = system: HCT-116 colon
HCT-15 colon = system: HCT-15 colon
HL-60(TB) leukemia = system: HL-60(TB) leukemia
HOP-62 NSCLC = system: HOP-62 NSCLC
HOP-92 NSCLC = system: HOP-92 NSCLC
HS 578T breast = system: HS 578T breast
HT29 colon = system: HT29 colon
IGROV1 ovarian = system: IGROV1 ovarian
K-562 leukemia = system: K-562 leukemia
KM12 colon = system: KM12 colon
LOX IMVI melanoma = system: LOX IMVI melanoma
M14 melanoma = system: M14 melanoma
MALME-3M melanoma = system: MALME-3M melanoma
MCF7 breast = system: MCF7 breast
MDA-MB-231 breast = system: MDA-MB-231 breast
MDA-MB-435 = system: MDA-MB-435
MOLT-4 leukemia = system: MOLT-4 leukemia
NCI-H226 lung = system: NCI-H226 lung
NCI-H23 lung = system: NCI-H23 lung
NCI-H460 lung = system: NCI-H460 lung
NCI-H522 lung = system: NCI-H522 lung
NCI/ADR-RES ovarian = system: NCI/ADR-RES ovarian
OVCAR-3 ovarian = system: OVCAR-3 ovarian
OVCAR-4 ovarian = system: OVCAR-4 ovarian
OVCAR-5 ovarian = system: OVCAR-5 ovarian
OVCAR-8 ovarian = system: OVCAR-8 ovarian
PC-3 prostate = system: PC-3 prostate
RPMI-8226 leukemia = system: RPMI-8226 leukemia
RXF 393 renal = system: RXF 393 renal
SF-268 CNS = system: SF-268 CNS
SF-295 CNS = system: SF-295 CNS
SF-539 CNS = system: SF-539 CNS
SK-MEL-2 melanoma = system: SK-MEL-2 melanoma
SK-MEL-28 melanoma = system: SK-MEL-28 melanoma
SK-MEL-5 melanoma = system: SK-MEL-5 melanoma
SK-OV-3 ovarian = system: SK-OV-3 ovarian
SN12C renal = system: SN12C renal
SNB-19 CNS = system: SNB-19 CNS
SNB-75 CNS = system: SNB-75 CNS
SR leukemia = system: SR leukemia
SW-620 colon = system: SW-620 colon
T-47D breast = system: T-47D breast
TK-10 renal = system: TK-10 renal
U251 CNS = system: U251 CNS
UACC-257 melanoma = system: UACC-257 melanoma
UACC-62 melanoma = system: UACC-62 melanoma
UO-31 renal = system: UO-31 renal

C=CC(=O)Nc1cccc(Nc2nc(Nc3ccc(OCCOC)cc3)ncc2F)c1
GI50 (786-0 renal): 0.887 µM
TGI (786-0 renal): 13.1 µM
GI50 (A498 renal): 0.306 µM
TGI (A498 renal): 1.66 µM
GI50 (A549 NSCLC): 2.77 µM
TGI (A549 NSCLC): 13.1 µM
GI50 (ACHN renal): 0.454 µM
TGI (ACHN renal): 2.84 µM
GI50 (BT-549 breast): 0.718 µM
TGI (BT-549 breast): 8.23 µM
GI50 (CAKI-1 renal): 0.511 µM
TGI (CAKI-1 renal): 2.46 µM
GI50 (CCRF-CEM leukemia): 4.06 µM
TGI (CCRF-CEM leukemia): > 63.1 µM
GI50 (COLO 205 colon): 2.39 µM
TGI (COLO 205 colon): 11 µM
GI50 (DU-145 prostate): 1.55 µM
TGI (DU-145 prostate): 13.7 µM
GI50 (EKVX NSCLC): 3.16 µM
TGI (EKVX NSCLC): 15.6 µM
GI50 (HCC-2998 colon): 3.55 µM
TGI (HCC-2998 colon): 19.5 µM
GI50 (HCT-116 colon): 1.82 µM
TGI (HCT-116 colon): 13.1 µM
GI50 (HCT-15 colon): 1.03 µM
TGI (HCT-15 colon): 16.1 µM
GI50 (HL-60(TB) leukemia): 7.7 µM
TGI (HL-60(TB) leukemia): 41.7 µM
GI50 (HOP-62 NSCLC): 2.42 µM
TGI (HOP-62 NSCLC): 20.7 µM
GI50 (HOP-92 NSCLC): 0.928 µM
TGI (HOP-92 NSCLC): 5.34 µM
GI50 (HS 578T breast): 1.17 µM
TGI (HS 578T breast): 6.97 µM
GI50 (HT29 colon): 2.6 µM
TGI (HT29 colon): 16.3 µM
GI50 (IGROV1 ovarian): 1.66 µM
TGI (IGROV1 ovarian): 5.45 µM
GI50 (K-562 leukemia): 4.8 µM
TGI (K-562 leukemia): > 100 µM
GI50 (KM12 colon): 3.43 µM
TGI (KM12 colon): 15.6 µM
GI50 (LOX IMVI melanoma): 1.12 µM
TGI (LOX IMVI melanoma): 3.62 µM
GI50 (M14 melanoma): 1.12 µM
TGI (M14 melanoma): 12.7 µM
GI50 (MALME-3M melanoma): 3.08 µM
TGI (MALME-3M melanoma): 20.9 µM
GI50 (MCF7 breast): 2.54 µM
TGI (MCF7 breast): 17.2 µM
GI50 (MDA-MB-231 breast): 2.85 µM
TGI (MDA-MB-231 breast): 24.7 µM
GI50 (MDA-MB-435): 2.87 µM
TGI (MDA-MB-435): 15.7 µM
GI50 (MOLT-4 leukemia): 3.97 µM
TGI (MOLT-4 leukemia): 33.6 µM
GI50 (NCI-H226 lung): 0.914 µM
TGI (NCI-H226 lung): 11.6 µM
GI50 (NCI-H23 lung): 5.67 µM
TGI (NCI-H23 lung): 29.1 µM
GI50 (NCI-H460 lung): 2.28 µM
TGI (NCI-H460 lung): 14.5 µM
GI50 (NCI-H522 lung): 1.78 µM
TGI (NCI-H522 lung): 8.14 µM
GI50 (NCI/ADR-RES ovarian): 2.94 µM
TGI (NCI/ADR-RES ovarian): 16.3 µM
GI50 (OVCAR-3 ovarian): 2.47 µM
TGI (OVCAR-3 ovarian): 16.1 µM
GI50 (OVCAR-4 ovarian): 0.824 µM
TGI (OVCAR-4 ovarian): 17.1 µM
GI50 (OVCAR-5 ovarian): 1.89 µM
TGI (OVCAR-5 ovarian): 21 µM
GI50 (OVCAR-8 ovarian): 3.19 µM
TGI (OVCAR-8 ovarian): 45.1 µM
GI50 (PC-3 prostate): 2.92 µM
TGI (PC-3 prostate): 26.9 µM
GI50 (RPMI-8226 leukemia): 3.28 µM
TGI (RPMI-8226 leukemia): 23.3 µM
GI50 (RXF 393 renal): 0.387 µM
TGI (RXF 393 renal): 2.73 µM
GI50 (SF-268 CNS): 2.06 µM
TGI (SF-268 CNS): 16 µM
GI50 (SF-295 CNS): 2.95 µM
TGI (SF-295 CNS): 14 µM
GI50 (SF-539 CNS): 1.47 µM
TGI (SF-539 CNS): 4.95 µM
GI50 (SK-MEL-2 melanoma): 1.9 µM
TGI (SK-MEL-2 melanoma): 8.65 µM
GI50 (SK-MEL-28 melanoma): 5.62 µM
TGI (SK-MEL-28 melanoma): 24.4 µM
GI50 (SK-MEL-5 melanoma): 6.18 µM
TGI (SK-MEL-5 melanoma): 20.2 µM
GI50 (SK-OV-3 ovarian): 0.533 µM
TGI (SK-OV-3 ovarian): 3.17 µM
GI50 (SN12C renal): 1.77 µM
TGI (SN12C renal): 31.4 µM
GI50 (SNB-19 CNS): 3.91 µM
TGI (SNB-19 CNS): 37.4 µM
GI50 (SNB-75 CNS): 0.341 µM
TGI (SNB-75 CNS): 2.44 µM
GI50 (SR leukemia): 3.41 µM
TGI (SR leukemia): > 100 µM
GI50 (SW-620 colon): 2.14 µM
TGI (SW-620 colon): 22.3 µM
GI50 (T-47D breast): 1.7 µM
TGI (T-47D breast): 8.9 µM
GI50 (TK-10 renal): 0.99 µM
TGI (TK-10 renal): 3.86 µM
GI50 (U251 CNS): 1.89 µM
TGI (U251 CNS): 16 µM
GI50 (UACC-257 melanoma): 6.4 µM
TGI (UACC-257 melanoma): 22.5 µM
GI50 (UACC-62 melanoma): 1.93 µM
TGI (UACC-62 melanoma): 12.9 µM
GI50 (UO-31 renal): 0.549 µM
TGI (UO-31 renal): 5.06 µM
